Laboratory results reported in patent publication US9089603B2, “Fluorescent imaging with substituted cyanine dyes” (LI-COR, INC., priority 2010, dated 2015).

Columns and labels:
[1] = Absorption wavelength of the cyanine dyes in methanol (halo substitution effect); assay type: physicochemical
Description: [table] Design Principle: We analyzed the properties of a dye scaffold and related compounds and the corresponding substitution effects on the excitation and emission wavelengths. The small size of fluorine is unlikely to produce steric effects, therefore, we explored the electronic effects of fluorine and related substitutions. The Hammett equation (σ-value) is an important tool to understand the electronic effects of the substituents, therefore, we explored the correlation of the wavelength (λMeOH) and the σ-value (vide infra): […]

[2] = Comparison of dye emission maxima and quenching; assay type: physicochemical; details: IRDye 800CW samples, excitation 770 nm; for Peak fluorescence emission intensity: PBS pH 7.4
Experimental: Solutions of dye-linker standards and dye-linker-quencher samples were diluted into PBS buffer (pH 7.4) to give a dye-specific absorbance less than 0.2 AU. The fluorescence spectra of each dilution were then taken at a consistent excitation wavelength (670 nm for HETD and 770 nm for IRDye 800CW). The emission spectra were collected from 680-1000 nm for the HETD samples and 780-1000 nm for the IRDye 800CW samples.

[3] = In vivo clearance imaging in nude mice (Pearl Impulse); details: 1 nmole; for Total (signal): 800 channel
Experimental: Two nude mice were injected with 1 nmole of either compound 16 or IRDye 800CW carboxylate. They were then imaged longitudinally over the next 24 h with the Pearl Impulse imaging system. The results are presented in FIG. 9: in vivo clearance in nudes (FIG. 9A), whole body dorsal views (FIG. 9B), and the rate of clearance (FIG. 9C). The clearance data is presented below in Table 4.

[4] = Photophysical properties (absorption, emission, fluorescence intensity, quantum yield) versus IRDye 800CW; assay type: physicochemical

Molecule	λMeOH ([1]; Table 5) [nm]	λMeOH ([1]; Table 2) [nm]	other results
CC1(C)C(/C=C/C2=C(c3ccccc3F)C(=C/C=C3/N(CCCCS(=O)(=O)[O-])c4ccc(S(=O)(=O)[O-])cc4C3(C)C)/CCC2)=[N+](CCCCCC(=O)O)c2ccc(S(=O)(=O)[O-])cc21.[Na+].[Na+]	772	–	–
CC1(C)C(/C=C/C2=C(c3c(Cl)cccc3Cl)C(=C/C=C3/N(CCCCS(=O)(=O)[O-])c4ccc(S(=O)(=O)[O-])cc4C3(C)C)/CCC2)=[N+](CCCCCC(=O)O)c2ccc(S(=O)(=O)[O-])cc21.[Na+].[Na+]	782	–	–
CC1(C)C(/C=C/C2=C(c3c(F)cc(C(=O)O)cc3F)C(=C/C=C3/N(CCCCS(=O)(=O)[O-])c4ccc(S(=O)(=O)[O-])cc4C3(C)C)/CCC2)=[N+](CCCCCC(=O)O)c2ccc(S(=O)(=O)[O-])cc21.[Na+].[Na+]	782	–	–
CC1(C)C(/C=C/C2=C(c3c(F)cc(F)cc3F)C(=C/C=C3/N(CCCCS(=O)(=O)[O-])c4ccc(S(=O)(=O)[O-])cc4C3(C)C)/CCC2)=[N+](CCCCCC(=O)O)c2ccc(S(=O)(=O)[O-])cc21.[Na+].[Na+]	785	–	–
CC1(C)C(/C=C/C2=C(c3c(F)cccc3F)C(=C/C=C3/N(CCCCS(=O)(=O)[O-])c4ccc(S(=O)(=O)[O-])cc4C3(C)C)/CCC2)=[N+](CCCCCC(=O)O)c2ccc(S(=O)(=O)[O-])cc21.[Na+].[Na+]	782	–	–
CCCCOc1c(F)c(F)c(C2=C(/C=C/C3=[N+](CCCCS(=O)(=O)[O-])c4ccc(S(=O)(=O)[O-])cc4C3(C)C)CCC/C2=C\C=C2\N(CCCCS(=O)(=O)[O-])c3ccc(S(=O)(=O)[O-])cc3C2(C)C)c(F)c1F.[Na+].[Na+].[Na+] [Compound 24]	–	790	–
CC1(C)C(/C=C/C2=C(Oc3ccc(S(=O)(=O)[O-])cc3)C(=C/C=C3/N(CCCCS(=O)(=O)[O-])c4ccc(S(=O)(=O)[O-])cc4C3(C)C)/CCC2)=[N+](CCCCCC(=O)NCCCOCCOCCOCCCN)c2ccc(S(=O)(=O)[O-])cc21.O=C(O)C(F)(F)F.[Na+].[Na+].[Na+] [Compound 32]	–	–	Peak fluorescence emission intensity [2]: 1343900
CC1(C)C(/C=C/C2=C(Oc3ccc(S(=O)(=O)[O-])cc3)C(=C/C=C3/N(CCCCS(=O)(=O)[O-])c4ccc(S(=O)(=O)[O-])cc4C3(C)C)/CCC2)=[N+](CCCCCC(=O)NCCCCCCNC(=O)CCCCC[N+]2=C(/C=C/C3=C(c4ccccc4F)C(=C/C=C4/N(CCCS(=O)(=O)[O-])c5ccc(N(CCCS(=O)(=O)[O-])CCCS(=O)(=O)[O-])cc5C4(C)C)/CCC3)C(C)(C)c3c2ccc2cc(S(=O)(=O)[O-])ccc32)c2ccc(S(=O)(=O)[O-])cc21.[Na+].[Na+].[Na+].[Na+].[Na+].[Na+] [Compound 37]	–	–	Peak fluorescence emission intensity [2]: 519267; Percent Quenching ([2]; versus dye-linker standard): 61.4%
COc1cc(F)c(C2=C(/C=C/C3=[N+](CCCCCC(=O)O)c4ccc(S(=O)(=O)[O-])cc4C3(C)C)CCC/C2=C\C=C2\N(CCCCS(=O)(=O)[O-])c3ccc(S(=O)(=O)[O-])cc3C2(C)C)c(F)c1.[Na+].[Na+]	772	–	–
CCCCOc1c(F)c(F)c(C2=C(/C=C/C3=[N+](CCCCCC(=O)O)c4ccc(S(=O)(=O)[O-])cc4C3(C)C)CCC/C2=C\C=C2\N(CCCCS(=O)(=O)[O-])c3ccc(S(=O)(=O)[O-])cc3C2(C)C)c(F)c1F.[Na+].[Na+]	790	–	–
IRDye 800CW carboxylate [reference compound]	–	–	Total (signal) ([3]; 3 Min): 114295.49; Total (signal) ([3]; 19 Min): 306555.97; Total (signal) ([3]; 47 Min): 291381.69; Total (signal) ([3]; 74 Min): 272408.13; Total (signal) ([3]; 192 Min): 154950.09; Total (signal) ([3]; 278 Min): 102698.54; Total (signal) ([3]; 1439 Min): 2336.87; Clearance in vivo ([3]; nude mice, imaged over 24 h): good clearance
CC1(C)C(/C=C/C2=C(c3cccc(F)c3F)C(=C/C=C3/N(CCCCS(=O)(=O)[O-])c4ccc(S(=O)(=O)[O-])cc4C3(C)C)/CCC2)=[N+](CCCCS(=O)(=O)[O-])c2ccc(S(=O)(=O)[O-])cc21.[Na+].[Na+].[Na+] [Compound 62k]	–	–	Fl Intensity of X / Fl Intensity of 800 CW, Odyssey ([4]; 0.1 μM solutions in 1XPBS, Odyssey): 104%; Fl Intensity of X / Fl Intensity of 800 CW, Fluorimeter ([4]; 0.1 μM solutions in 1XPBS, fluorimeter): 100%; Quantum Yield ([4]; Stnd = IRDye 800CW (QY = 0.07)): 0.060; Abs Max PBS ([4]; in PBS): 773 nm; EmMax PBS ([4]; in PBS): 790 nm; Abs Max Methanol ([4]; in methanol): 781 nm
CCCCOc1c(F)cc(F)c(C2=C(/C=C/C3=[N+](CCCCCC(=O)O)c4ccc(S(=O)(=O)[O-])cc4C3(C)C)CCC/C2=C\C=C2\N(CCCCS(=O)(=O)[O-])c3ccc(S(=O)(=O)[O-])cc3C2(C)C)c1F.[Na+].[Na+]	789	–	–

Continued, in another order:

λMeOH ([1]; Table 5) [nm]	λMeOH ([1]; Table 2) [nm]	Molecule	other results
–	782	CC1(C)C(/C=C/C2=C(c3c(F)cc(C(=O)O)cc3F)C(=C/C=C3/N(CCCCS(=O)(=O)[O-])c4ccc(S(=O)(=O)[O-])cc4C3(C)C)/CCC2)=[N+](CCCCS(=O)(=O)[O-])c2ccc(S(=O)(=O)[O-])cc21.[Na+].[Na+].[Na+] [Compound 26]	–
–	772	CC1(C)C(/C=C/C2=C(c3ccc(C(=O)O)c(F)c3F)C(=C/C=C3/N(CCCCS(=O)(=O)[O-])c4ccc(S(=O)(=O)[O-])cc4C3(C)C)/CCC2)=[N+](CCCCS(=O)(=O)[O-])c2ccc(S(=O)(=O)[O-])cc21.[Na+].[Na+].[Na+] [Compound 64]	–
–	783	COc1cc(F)c(C2=C(/C=C/C3=[N+](CCCCS(=O)(=O)[O-])c4ccc(S(=O)(=O)[O-])cc4C3(C)C)CCC/C2=C\C=C2\N(CCCCS(=O)(=O)[O-])c3ccc(S(=O)(=O)[O-])cc3C2(C)C)c(F)c1.[Na+].[Na+].[Na+] [Compound 21]	–
–	766	CC1(C)C(/C=C/C2=C(c3cccc(CCCCC(=O)O)c3)C(=C/C=C3/N(CCCCS(=O)(=O)[O-])c4ccc(S(=O)(=O)[O-])cc4C3(C)C)/CCC2)=[N+](CCCCS(=O)(=O)[O-])c2ccc(S(=O)(=O)[O-])cc21.[Na+].[Na+].[Na+] [Compound 11]	–
–	785	CC1(C)C(/C=C/C2=C(c3c(F)cc(F)cc3F)C(=C/C=C3/N(CCCCS(=O)(=O)[O-])c4ccc(S(=O)(=O)[O-])cc4C3(C)C)/CCC2)=[N+](CCCCS(=O)(=O)[O-])c2ccc(S(=O)(=O)[O-])cc21.[Na+].[Na+].[Na+] [Compound 14]	–
–	770	CC1(C)C(/C=C/C2=C(c3cccc(F)c3F)C(=C/C=C3/N(CCCCS(=O)(=O)[O-])c4ccc(S(=O)(=O)[O-])cc4C3(C)C)/CC(C(=O)O)C2)=[N+](CCCCS(=O)(=O)[O-])c2ccc(S(=O)(=O)[O-])cc21.[Na+].[Na+].[Na+] (stereo not shown) [Compound 63a]	–
–	789	CCCCOc1c(F)cc(F)c(C2=C(/C=C/C3=[N+](CCCCS(=O)(=O)[O-])c4ccc(S(=O)(=O)[O-])cc4C3(C)C)CCC/C2=C\C=C2\N(CCCCS(=O)(=O)[O-])c3ccc(S(=O)(=O)[O-])cc3C2(C)C)c1F.[Na+].[Na+].[Na+] [Compound 23]	–
–	772	CC1(C)C(/C=C/C2=C(c3ccccc3F)C(=C/C=C3/N(CCCCS(=O)(=O)[O-])c4ccc(S(=O)(=O)[O-])cc4C3(C)C)/CCC2)=[N+](CCCCS(=O)(=O)[O-])c2ccc(S(=O)(=O)[O-])cc21.[Na+].[Na+].[Na+] [Compound 12]	–
–	783	CCCCOc1ccc(F)c(C2=C(/C=C/C3=[N+](CCCCS(=O)(=O)[O-])c4ccc(S(=O)(=O)[O-])cc4C3(C)C)CCC/C2=C\C=C2\N(CCCCS(=O)(=O)[O-])c3ccc(S(=O)(=O)[O-])cc3C2(C)C)c1F.[Na+].[Na+].[Na+] [Compound 22]	–
–	782	CC1(C)C(/C=C/C2=C(c3c(F)cccc3F)C(=C/C=C3/N(CCCCS(=O)(=O)[O-])c4ccc(S(=O)(=O)[O-])cc4C3(C)C)/CCC2)=[N+](CCCCS(=O)(=O)[O-])c2ccc(S(=O)(=O)[O-])cc21.[Na+].[Na+].[Na+] [Compound 13]	–
779	–	CCCCOc1ccc(F)c(C2=C(/C=C/C3=[N+](CCCCCC(=O)O)c4ccc(S(=O)(=O)[O-])cc4C3(C)C)CCC/C2=C\C=C2\N(CCCCS(=O)(=O)[O-])c3ccc(S(=O)(=O)[O-])cc3C2(C)C)c1F.[Na+].[Na+]	–
–	782	CC1(C)C(/C=C/C2=C(c3c(Cl)cccc3Cl)C(=C/C=C3/N(CCCS(=O)(=O)[O-])c4ccc(S(=O)(=O)[O-])cc4C3(C)C)/CC(C(=O)O)C2)=[N+](CCCS(=O)(=O)[O-])c2ccc(S(=O)(=O)[O-])cc21.[Na+].[Na+].[Na+] (stereo not shown) [Compound 15]	–
–	776	CC1(C)C(/C=C/C2=C(c3ccc(CCC(=O)O)c(F)c3F)C(=C/C=C3/N(CCCCS(=O)(=O)[O-])c4ccc(S(=O)(=O)[O-])cc4C3(C)C)/CCC2)=[N+](CCCCS(=O)(=O)[O-])c2ccc(S(=O)(=O)[O-])cc21.[Na+].[Na+].[Na+] [Compound 65]	–
–	773	CC1(C)C(/C=C/C2=C(c3ccc(C(=O)NCCCCCC(=O)O)c(F)c3F)C(=C/C=C3/N(CCCCS(=O)(=O)[O-])c4ccc(S(=O)(=O)[O-])cc4C3(C)C)/CCC2)=[N+](CCCCS(=O)(=O)[O-])c2ccc(S(=O)(=O)[O-])cc21.[Na+].[Na+].[Na+] [Compound 66]	–
